Results: patent US8821568B2, “Implant modified with non-hydroxylated vitamin D precursors” (Numat Biomedical S.L., priority 2008, dated 2014)

How the values were obtained:
Format in all cases: cell-based, mouse
[1] = tested on: MC3T3-E1 cells; assay: Real-time RT-PCR of vitamin D hydroxylation/degradation enzymes (CYP27A1, CYP27B1, CYP24A1), plastic wells; conditions: TCP, 2×10^−2 nmols, not irradiated
Experimental: (§1) To test the effect of the different treatments onto the plastic wells, 96-well plates made of polystyrene were used and the treatments with 7-DHC performed directly onto them. Cells grown onto untreated TCP were added as a control for all the experiments. Cells were seeded at a density of 30,000 cells/cm^2 and they were maintained in α-MEM supplemented with 10% FCS and antibiotics. Culture media was collected after 48 hours, to test cytotoxicity and the production of the hydroxylated forms of vitamin D. Cells were harvested after 2 days of culture using Trizol reagent (Roche Diagnostics, Mannheim, Germany), to analyse early gene expression response of several osteoblast differentiation markers and enzymes involved in vitamin D synthesis using real-time RT-PCR.
(§2) RNA was isolated from cells using a monophasic solution of phenol and guanidine thiocyanate (Trizol, Roche Diagnostics, Mannheim, Germany) according to the manufacturer's protocol. RNA was quantified at 260 nm using a Nanodrop spectrophotometer (NanoDrop Technologies, Wilmington, Del., USA).
(§3) Total RNA previously isolated was reverse-transcribed to cDNA using High Capacity RNA to cDNA kit (Applied Biosystems, Foster City, Calif.) according to the protocol of the supplier. The same amount of total RNA from each sample was converted into cDNA. Each cDNA was diluted ¼ and aliquots were stored at −20° C. until the PCR reactions were carried out.
(§4) Real-time RT-PCR was performed for two reference genes: 18S ribosomal RNA (18S rRNA), glyceraldehyde-3-phosphate dehydrogenase (GAPDH), and 11 target genes alkaline phospathase (ALP), Interleukin 6 (IL-6), Collagen (Coll-1), Osteocalcin (OC), Bone Morphogenetic Protein 2 (BMP-2), Osterix (Osx), Receptor activator of nuclear factor kappa-B ligand (RANKL), Osteoprogesterin (OPG) and genes involved in vitamin D synthesis such as Vitamin D3 25-hydroxylase (CYP27A1), 25 hydroxyvitamin D3-1-alpha hydroxylase (CYP27B1) and 1,25-dihydroxyvitamin D3 24-hydroxylase (CYP24A1).
Real-time PCR were performed in the Lightcycler 480® (Roche Diagnostics, Germany). […] After each cycle, fluorescence was measured at 72° C. […]
(§5) To allow relative quantification after PCR, real-time efficiencies were calculated from the given slopes in the LightCycler 480 software (Roche Diagnostics, Mannheim, Germany) using serial dilutions. Relative quantification after PCR was calculated by normalizing target gene concentration in each sample by the concentration mean of the two reference genes in given sample using the “advanced relative quantification method” provided by the LightCycler 480 analysis software.

[2] = tested on: MC3T3-E1 cells; assay: Real-time RT-PCR of bone markers, plastic wells; conditions: TCP; 2 days; 2×10^−2 nmols, not irradiated, compared to control
Experimental: as §1, §2, §3, §4
(§6) Real-time PCR were performed in the Lightcycler 480® (Roche Diagnostics, Germany). Each reaction contained 5 μl of LightCycler-FastStart DNA Master^PLUS SYBR Green I (Roche Diagnostics, Mannheim, Germany), 0.5 μM of the sense and antisense specific primers (Table 1) and 3 μl of the cDNA dilution in a final volume of 10 μl. The normal amplification program consisted of a preincubation step for denaturation of the template cDNA (10 min 95° C.), followed by 45 cycles consisting of a denaturation step (10 s 95° C.), an annealing step (10 s 60° C., except for ALP that was 10 s at 65° C., OSX with 10 s at 68° C. and CYP24A1 at 58° C. 10 s) and an extension step (10 s 72° C.). After each cycle, fluorescence was measured at 72° C. Every run included a negative control without cDNA template. To confirm amplification specificity, PCR products were subjected to a melting curve analysis on the LightCycler and subsequently 2% agarose/TAE gel electrophoresis, Tm and amplicon size, respectively.
as §5

[3] = tested on: MC3T3-E1 cells; assay: Calcium content (mineralization, ICP-AES) on coated titanium implants; conditions: Ti implants; 28 days; UV-untreated; data not shown
Experimental: To test the effect of the surface modification, 96-well plates were used. Ti disks were placed into the wells and treatments and UV-activation were performed over there. Cells grown onto untreated polystyrene tissue culture plastic (TCP) were added as a control for all the experiments. Cells were seeded at a density of 30,000 cells/cm^2 and they were maintained in α-MEM supplemented with 10% FCS and antibiotics. Culture media was collected after 48 hours, to test cytotoxicity and the production of the hydroxylated form of vitamin D, 25-D3. Cells were harvested after two days of culture using Trizol reagent (Roche Diagnostics, Mannheim, Germany), to analyze gene expression of several osteoblast differentiation markers and enzymes involved in vitamin D synthesis using real-time RT-PCR. […]
[…] Cell lysates were put into freeze/thaw cycles (liquid nitrogen and 37° C. water bath) to improve protein recovery. […] ALP activity was calculated by measuring the cleavage of p-Nitrophenyl Phosphate (pNPP) (Sigma, St. Louis, Mo., USA) in a soluble yellow end product which absorbs at 405 nm. […] At this point, absorbance was read at 405 nm.
To determine calcium content samples were analyzed by inductively coupled plasma atomic emission spectrometry (Optima 5300 DV, PerkinElmer, Massachussetts, USA). […]

[4] = tested on: MC3T3-E1 cells; assay: ALP activity in cell monolayer on coated titanium implants; conditions: Ti implants; day 21; UV-untreated; percentage of ethanol UV-untreated group set to 100%; mean±SEM
Experimental: (§7) To test the effect of the surface modification, 96-well plates were used. Ti disks were placed into the wells and treatments and UV-activation were performed over there. Cells grown onto untreated polystyrene tissue culture plastic (TCP) were added as a control for all the experiments. Cells were seeded at a density of 30,000 cells/cm^2 and they were maintained in α-MEM supplemented with 10% FCS and antibiotics. Culture media was collected after 48 hours, to test cytotoxicity and the production of the hydroxylated form of vitamin D, 25-D3. Cells were harvested after two days of culture using Trizol reagent (Roche Diagnostics, Mannheim, Germany), to analyze gene expression of several osteoblast differentiation markers and enzymes involved in vitamin D synthesis using real-time RT-PCR. On the other hand, MC3T3-E1 cells were harvested after 21 days to measure calcium content and ALP activity in the cell monolayer.
Cell monolayer was collected at 21 cell differentiation days and PBS 0.1% Triton X-100 was added to solubilize proteins. Cell lysates were put into freeze/thaw cycles (liquid nitrogen and 37° C. water bath) to improve protein recovery. After centrifugation at 33,000 g for 15 min at 4° C., supernatants acquired were assayed for ALP activity, calcium content and total protein determination. ALP activity was calculated by measuring the cleavage of p-Nitrophenyl Phosphate (pNPP) (Sigma, St. Louis, Mo., USA) in a soluble yellow end product which absorbs at 405 nm. A volume of 100 μl of this substrate was used in combination with 25 μl of each sample supernatant or standard point. The standard curve was prepared from calf intestinal alkaline phosphatase (CIAP, 1 U/μl) (Promega, Madison, Wis., USA) by mixing 1 μl from the stock CIAP with 5 ml of alkaline phosphatase buffer (1:5000 dilution), and then making 1:5 serial dilutions. Once the reaction was carried out, after 30 min in dark at room temperature, it was stopped with the addition of 50 μl of 3 M sodium hydroxide. At this point, absorbance was read at 405 nm.
Total protein was determined using a BCA protein assay kit (Pierce, Rockford, Ill., USA). For the analysis, cell supernatants were diluted 1:1 in PBS 0.1% Triton X-100. Standard curve and samples were analyzed as described by the manufacturer and reading the absorbance at 562 nm.

[5] = tested on: MC3T3-E1 cells; assay: ELISA of 25-D3 and 1,25-D3 released to the culture media, plastic wells; conditions: TCP; 48 hours; 2×10^−2 nmols, not irradiated; mean±SEM
Experimental: as §1
25-D3 and 1,25-D3 released to the culture media after two days of treatment were analyzed by enzyme-linked immunosorbent assay (ELISA). Aliquots from the culture media were centrifuged at 1800 rpm for 5 minutes at 4° C. and supernatants were used for 25-D3 and 1,25-D3 determination following instructions described by the manufacturer (Immunodiagnostic Systems Ltd, Boldon, Tyne and Wear, UK).

[6] = tested on: MC3T3-E1 cells; assay: Real-time RT-PCR of osteoblast differentiation markers, coated titanium implants; conditions: Ti implants; 48 h; 2×10^−2 nmols, no UV, compared to control
Experimental: as §7, §2, §3
as §6, with “Real-time RT-PCR was performed for two reference genes: 18S ribosomal RNA (18S rRNA), glyceraldehyde-3-phosphate dehydrogenase (GAPDH); and eleven target genes: alkaline phosphathase (ALP), Interleukin 6 (IL-6), Collagen (Coll-1), Osteocalcin (OC), Bone Morphogenetic Protein 2 (BMP-2), Osterix (Osx), Receptor activator of nuclear factor kappa-B ligand (RANKL), Osteoprogesterin (OPG) and genes involved in vitamin D synthesis such as Vitamin D3 25-hydroxylase (CYP27A1) and 25 hydroxyvitamin D3-1-alpha hydroxylase (CYP27B1). Real-time” for “Real-time”, “C.)” for “C. and CYP24A1 at 58° C. 10 s)”
To allow relative quantification after PCR, real-time efficiencies were calculated from the given slopes in the LightCycler 480 software (Roche Diagnostics, Mannheim, Germany) using serial dilutions. Relative quantification after PCR was calculated by normalizing target gene concentration in each sample by the concentration mean of the two reference genes in given sample using the Advanced relative quantification method provided by the LightCycler 480 analysis software.

SMILES	CYP27B1 mRNA expression ([1]; 48 h)	CYP24A1 mRNA levels ([1]; 2 days, data not shown)	IL-6 expression levels [2]	Calcium levels [3]	ALP activity [4]	1,25-D3 detected in culture media [5]	25-D3 released to culture media [5]	RANKL gene expression [6]
C=C1CC[C@H](O)C/C1=C/C=C1\CCC[C@]2(C)[C@@H]([C@H](C)CCCC(C)(C)O)CC[C@@H]12 [25-D3, 25-hydroxyvitamin D3, reference compound]	not statistically different	only detected	significantly higher expression levels	trend to increased calcium levels	77.40±13.40%	42 ± 4 pmol/L	415 ± 20 nmol/L	–
C=C1CC[C@H](O)C/C1=C/C=C1\CCC[C@]2(C)[C@@H]([C@H](C)CCCC(C)C)CC[C@@H]12 [D3, cholecalciferol, reference compound]	–	–	–	–	35.28±4.23%	19.7 ± 0.7 pmol/L	9.1 ± 1.9 nmol/L	Statistical significances
